In the assay the target is KRAS G12C and cRAF (Ras-binding domain) interaction (Homo sapiens (Human), UniProt P01116, C118S/C51S/C80L/G12C). Kind of assay: Inhibition of KRAS G12C and cRAF binding (AlphaScreen). Conditions: GMPPNP-loaded KRAS G12C, 19-20 hours incubation with compound; read-out: IC50 (Inhibition of KRAS G12C and cRAF Binding). A digest of the protocol:
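Compounds (DMSO) preincubated 19-20 h at room temperature, then RBD with streptavidin donor and glutathione acceptor beads added in 25 mM Hepes pH 7.4, 150 mM NaCl, 5 mM MgCl2, 0.01% Triton X-100, 2% DMSO for 60-90 min. Emission 570 nm (excitation 680 nm); IC50 by 4-parameter fit. Counter-screen used biotin-AviTag-GST instead of RBD.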
KRAS G12C and cRAF (Ras-binding domain) interaction, sequence (P01116 other isoform, or with tags, fused parts or gaps G12C/C51S/C80L/C118S): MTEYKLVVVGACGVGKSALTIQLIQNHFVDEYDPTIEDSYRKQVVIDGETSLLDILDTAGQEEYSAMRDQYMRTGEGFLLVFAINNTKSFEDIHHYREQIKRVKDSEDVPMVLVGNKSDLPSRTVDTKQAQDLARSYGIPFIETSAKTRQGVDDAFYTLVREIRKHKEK
As to `CN1CC(/C=C/C(=O)N2CC[C@@H](N(C)c3nc(OC[C@@]45CCCN4C[C@H](F)C5)nc4c(F)c(-c5cccc6ccc(F)c(Cl)c56)ncc34)C2)C1` [Example 127, (E)-1-((R)-3-((7-(8-chloro-7-fluoronaphthalen-1-yl)-8-fluoro-2-(((2R,7aS)-2-fluorotetrahydro-1H-pyrrolizin-7a(5H)-yl)methoxy)pyrido[4,3-d]pyrimidin-4-yl)(methyl)amino)pyrrolidin-1-yl)-3-(1-methylazetidin-3-yl)prop-2-en-1-one], the 50% inhibitory concentration (IC50) lay within 100 to 500 nM. In the case of `CN(c1nc(OCC23CCCN2CCC3)nc2c1CCN(c1cccc3cccc(Cl)c13)C2)[C@@H]1CCN(C(=O)/C=C/c2nc(C3(C)CC3)no2)C1` [Example 128, (R,E)-1-(3-((7-(8-chloronaphthalen-1-yl)-2-((hexahydro-1H-pyrrolizin-7a-yl)methoxy)-5,6,7,8-tetrahydropyrido[3,4-d]pyrimidin-4-yl)(methyl)amino)pyrrolidin-1-yl)-3-(3-(1-methylcyclopropyl)-1,2,4-oxadiazol-5-yl)prop-2-en-1-one], the IC50 lay within 100 to 500 nM.

`CN(c1nc(OCC23CCCN2CCC3)nc2c(F)c(-c3cccc4cccc(Cl)c34)ncc12)[C@@H]1CCN(C(=O)/C=C/c2nc([C@H]3C[C@@H]3F)no2)C1` [Example 129, (E)-1-((R)-3-((7-(8-chloronaphthalen-1-yl)-8-fluoro-2-((tetrahydro-1H-pyrrolizin-7a(5H)-yl)methoxy)pyrido[4,3-d]pyrimidin-4-yl)(methyl)amino)pyrrolidin-1-yl)-3-(3-((1R,2S)-2-fluorocyclopropyl)-1,2,4-oxadiazol-5-yl)prop-2-en-1-one]: the concentration for half-maximal inhibition (IC50) fell in the range of 10 to 100 nM. The result for `CN(c1nc(OC[C@@]23CCCN2C[C@H](F)C3)nc2c(F)c(-c3cccc4cccc(Cl)c34)ncc12)[C@@H]1CCN(C(=O)/C=C/c2cn(C)cn2)C1` [Example 135, (E)-1-((R)-3-((7-(8-chloronaphthalen-1-yl)-8-fluoro-2-(((2R,7aS)-2-fluorohexahydro-1H-pyrrolizin-7a-yl)methoxy)pyrido[4,3-d]pyrimidin-4-yl)(methyl)amino)pyrrolidin-1-yl)-3-(1-methyl-1H-imidazol-4-yl)prop-2-en-1-one] reads 100 to 500 nM; that for `CC(C)c1noc(/C=C/C(=O)N2CC[C@@H](N(C)c3nc(OC[C@@]45CCCN4C[C@H](F)C5)nc4c3CCN(c3cccc5cccc(Cl)c35)C4)C2)n1` [Example 136, (E)-1-((R)-3-((7-(8-chloronaphthalen-1-yl)-2-(((2R,7aS)-2-fluorohexahydro-1H-pyrrolizin-7a-yl)methoxy)-5,6,7,8-tetrahydropyrido[3,4-d]pyrimidin-4-yl)(methyl)amino)pyrrolidin-1-yl)-3-(3-isopropyl-1,2,4-oxadiazol-5-yl)prop-2-en-1-one], 10 to 100 nM; that for `C=CC(=O)N1CC[C@@H](N(C)c2nc(OC[C@@]34CCCN3C[C@H](O)C4)nc3c(F)c(-c4cccc5cccc(Cl)c45)ncc23)C1` [Example 137, 1-((R)-3-((7-(8-chloronaphthalen-1-yl)-8-fluoro-2-(((2R,7aS)-2-hydroxytetrahydro-1H-pyrrolizin-7a(5H)-yl)methoxy)pyrido[4,3-d]pyrimidin-4-yl)(methyl)amino)pyrrolidin-1-yl)prop-2-en-1-one], 10 to 100 nM. For the compound `Cc1nsc(/C=C/C(=O)N2CC[C@@H](N(C)c3nc(OCC45CCCN4CCC5)nc4c(F)c(-c5cccc6cccc(Cl)c56)ncc34)C2)n1` [Example 138, (R,E)-1-(3-((7-(8-chloronaphthalen-1-yl)-8-fluoro-2-((tetrahydro-1H-pyrrolizin-7a(5H)-yl)methoxy)pyrido[4,3-d]pyrimidin-4-yl)(methyl)amino)pyrrolidin-1-yl)-3-(3-methyl-1,2,4-thiadiazol-5-yl)prop-2-en-1-one], the half-inhibitory concentration (IC50) is 10 to 100 nM. Regarding `CN(c1nc(OCC23CCCN2CCC3)nc2c1CCN(c1cccc3cccc(Cl)c13)C2)[C@@H]1CCN(C(=O)/C=C/c2nc([C@H]3C[C@@H]3F)no2)C1` [Example 141, (E)-1-((R)-3-((7-(8-chloronaphthalen-1-yl)-2-((hexahydro-1H-pyrrolizin-7a-yl)methoxy)-5,6,7,8-tetrahydropyrido[3,4-d]pyrimidin-4-yl)(methyl)amino)pyrrolidin-1-yl)-3-(3-((1R,2S)-2-fluorocyclopropyl)-1,2,4-oxadiazol-5-yl)prop-2-en-1-one], the IC50 is 10 to 100 nM. `Cc1coc(/C=C/C(=O)N2CC[C@@H](N(C)c3nc(OCC45CCCN4CCC5)nc4c(F)c(-c5cccc6cccc(Cl)c56)ncc34)C2)n1` [Example 143, (R,E)-1-(3-((7-(8-chloronaphthalen-1-yl)-8-fluoro-2-((tetrahydro-1H-pyrrolizin-7a(5H)-yl)methoxy)pyrido[4,3-d]pyrimidin-4-yl)(methyl)amino)pyrrolidin-1-yl)-3-(4-methyloxazol-2-yl)prop-2-en-1-one]: the concentration for half-maximal inhibition (IC50) lay in the range of 100 to 500 nM. In the case of `CN(c1nc(OCC23CCCN2CCC3)nc2c(F)c(-c3cccc4cccc(Cl)c34)ncc12)[C@@H]1CCN(C(=O)/C=C/c2nc(C(C)(C)C)no2)C1` [Example 147, (R,E)-3-(3-(tert-butyl)-1,2,4-oxadiazol-5-yl)-1-(3-((7-(8-chloronaphthalen-1-yl)-8-fluoro-2-((hexahydro-1H-pyrrolizin-7a-yl)methoxy)pyrido[4,3-d]pyrimidin-4-yl)(methyl)amino)pyrrolidin-1-yl)prop-2-en-1-one], the 50% inhibitory concentration (IC50) was in the range of 10 to 100 nM. For the compound `CN(c1nc(OC[C@@]23CCCN2C[C@H](F)C3)nc2c1CCN(c1cccc3cccc(Cl)c13)C2)[C@@H]1CCN(C(=O)/C=C/c2nc(C(C)(C)C)no2)C1` [Example 148, (E)-3-(3-(tert-butyl)-1,2,4-oxadiazol-5-yl)-1-((R)-3-((7-(8-chloronaphthalen-1-yl)-2-(((2R,7aS)-2-fluorohexahydro-1H-pyrrolizin-7a-yl)methoxy)-5,6,7,8-tetrahydropyrido[3,4-d]pyrimidin-4-yl)(methyl)amino)pyrrolidin-1-yl)prop-2-en-1-one], the half-inhibitory concentration (IC50) lay within 100 to 500 nM. `CN(c1nc(OCC23CCCN2CCC3)nc2c1CCN(c1cccc3cccc(Cl)c13)C2)[C@@H]1CCN(C(=O)/C=C/c2nc(C(C)(C)C)no2)C1` [Example 149, (R,E)-3-(3-(tert-butyl)-1,2,4-oxadiazol-5-yl)-1-(3-((7-(8-chloronaphthalen-1-yl)-2-((hexahydro-1H-pyrrolizin-7a-yl)methoxy)-5,6,7,8-tetrahydropyrido[3,4-d]pyrimidin-4-yl)(methyl)amino)pyrrolidin-1-yl)prop-2-en-1-one]: the half-inhibitory concentration (IC50) was in the range of 10 to 100 nM. As for `CN(CC1CN(C(=O)/C=C/c2nc(C(F)F)no2)C1)c1nc(OCC23CCCN2CCC3)nc2c1CCN(c1cccc3cccc(Cl)c13)C2` [Example 150, (E)-1-(3-(((7-(8-chloronaphthalen-1-yl)-2-((hexahydro-1H-pyrrolizin-7a-yl)methoxy)-5,6,7,8-tetrahydropyrido[3,4-d]pyrimidin-4-yl)(methyl)amino)methyl)azetidin-1-yl)-3-(3-(difluoromethyl)-1,2,4-oxadiazol-5-yl)prop-2-en-1-one], the 50% inhibitory concentration (IC50) was below 10 nM. The result for `C=CC(=O)N1CC[C@@H](N(C)c2nc(OC[C@]34CCCN3C[C@@H](F)C4)nc3c(F)c(-c4cccc5ccc(F)c(Cl)c45)ncc23)C1` [Example 151, 1-((R)-3-((7-(8-chloro-7-fluoronaphthalen-1-yl)-8-fluoro-2-(((2S,7aR)-2-fluorohexahydro-1H-pyrrolizin-7a-yl)methoxy)pyrido[4,3-d]pyrimidin-4-yl)(methyl)amino)pyrrolidin-1-yl)prop-2-en-1-one] reads above 500 nM; that for `CN(CC1CN(C(=O)/C=C/c2nc(C3COC3)no2)C1)c1nc(OC[C@@]23CCCN2C[C@H](F)C3)nc2c(F)c(-c3cccc4cccc(Cl)c34)ncc12` [Example 152, (E)-1-(3-(((7-(8-chloronaphthalen-1-yl)-8-fluoro-2-(((2R,7aS)-2-fluorotetrahydro-1H-pyrrolizin-7a(5H)-yl)methoxy)pyrido[4,3-d]pyrimidin-4-yl)(methyl)amino)methyl)azetidin-1-yl)-3-(3-(oxetan-3-yl)-1,2,4-oxadiazol-5-yl)prop-2-en-1-one], below 10 nM; that for `CN(CC1CN(C(=O)/C=C/c2nc(C3COC3)no2)C1)c1nc(OCC23CCCN2CCC3)nc2c(F)c(-c3cccc4cccc(Cl)c34)ncc12` [Example 153, (E)-1-(3-(((7-(8-chloronaphthalen-1-yl)-8-fluoro-2-((tetrahydro-1H-pyrrolizin-7a(5H)-yl)methoxy)pyrido[4,3-d]pyrimidin-4-yl)(methyl)amino)methyl)azetidin-1-yl)-3-(3-(oxetan-3-yl)-1,2,4-oxadiazol-5-yl)prop-2-en-1-one], 10 to 100 nM.

Consider `CN(c1nc(OC[C@@]23CCCN2C[C@H](F)C3)nc2c1CCN(c1cccc3cccc(Cl)c13)C2)[C@@H]1CCN(C(=O)/C=C/c2nc(C3COC3)no2)C1` [Example 154, (E)-1-((R)-3-((7-(8-chloronaphthalen-1-yl)-2-(((2R,7aS)-2-fluorohexahydro-1H-pyrrolizin-7a-yl)methoxy)-5,6,7,8-tetrahydropyrido[3,4-d]pyrimidin-4-yl)(methyl)amino)pyrrolidin-1-yl)-3-(3-(oxetan-3-yl)-1,2,4-oxadiazol-5-yl)prop-2-en-1-one], for which the IC50 is below 10 nM. The result for `CN(c1nc(OCC23CCCN2CCC3)nc2c(F)c(-c3cccc4cccc(Cl)c34)ncc12)[C@@H]1CCN(C(=O)/C=C/c2nc(C3COC3)no2)C1` [Example 155, (R,E)-1-(3-((7-(8-chloronaphthalen-1-yl)-8-fluoro-2-((tetrahydro-1H-pyrrolizin-7a(5H)-yl)methoxy)pyrido[4,3-d]pyrimidin-4-yl)(methyl)amino)pyrrolidin-1-yl)-3-(3-(oxetan-3-yl)-1,2,4-oxadiazol-5-yl)prop-2-en-1-one] reads below 10 nM.

(Values after patent publication US20250019387A1 (Frontier Medicines Corporation, priority 0001, published 2025).)
